Assay results: patent publication US8951999B2, “Compounds” (Orexo AB, priority 2009, dated 2015)

Target: T1, recombinant human mPGES-1 (Homo sapiens, UniProt O14684)
T1 sequence (O14684 1-152): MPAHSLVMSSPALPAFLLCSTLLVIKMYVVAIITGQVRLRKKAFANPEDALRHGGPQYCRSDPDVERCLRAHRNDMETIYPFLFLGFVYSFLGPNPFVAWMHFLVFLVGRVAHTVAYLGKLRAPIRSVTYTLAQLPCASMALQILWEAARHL
Test: Assay A: mPGES-1 enzyme assay (HTRF detection of PGE2)
Type: biochemical
Conditions: biological assay A (compounds 1-41, 54, 55, 62, 73); PGE2 formation from PGH2, HTRF; read-out: mPGES-1 inhibitory effect IC50
Excerpt: Assay A: mPGES-1 Enzyme Assay
The basis of the assay used is to measure the inhibition of microsomal prostaglandin E2 synthase-1 (mPGES-1) dependent prostaglandin (PG) E2 formation from PGH2 by different compounds. Thus, the formation of PGE2 is used as signal and a lowering of this signal can be interpreted as inhibition of mPGES-1. Similar assays to measure inhibition of mPGES-1 have previously been described in the literature.
• Glutathione (Sigma, G-4251) • Freeze culture in Rosetta E coli expression strain. • LB growth media with Ampillicillin (Amp) final concentration in culture 50 μg/mL • Chloroamphenicol stock 34 mg/mL (chloro) final concentration in culture 34 μg/mL • Sterile growth flasks for 500 mL-1 liter cultures • 0.1 M KPi buffer pH 7.4 • 9.25% HCl • PGH2 (0.25 mM) • Fe (II) Cl2 tetrahydrate, 99% (Sigma, 220229) • 384-well plate with compounds • 96-well plate, polypropylene (Thermo fast 96 skirted VWR) • 384-well plate polypropylene PCR plate (Greiner 785201) • Greiner 384-well plate pp (In vitro cat. no. 781280) • Adhesive sealing film for 96-well plates (Sigma-Aldrich) • Aluminium foil (PCR foil, 310-0030-127-471 from Labora) • PBS (GIBCO 14040) • Prostaglandin E2 Assay (Cisbio, cat. no. 62P2APEC) • Biomek FX robot (Beckman Coulter) • Biomek NX robot (Beckman Coulter) • Multidrop; micro or combi (ThermoLabsystems) • Plate reader: Safire2 (Tecan)
Microsomes from Rosetta E. coli bacteria expressing recombinant human mPGES-1 can be derived as described below:
Inoculate 5 mL LB with Amp and Chloro with bacteria from freeze culture. Incubate over night at 37° C. with 200 rpm. Thereafter, inoculate 500-800 mL LB containing Amp and Chloro with the 5 mL on culture and grow to OD640 of 0.6-0.8. Chill the culture to +4° C. before induction. Induce the culture with IPTG at a final concentration of 400 μM. Express the protein at room temp 18-23° C. with 200 rpm shaking over night.
The following steps can be performed on the following day: • 1. Spin down the cells in 250 mL centrifuge flasks for 15 min at 7000 rpm • 2. Dissolve the pellet from 250 mL culture in 12.5 mL homogenization buffer • 3. Disintegrate the cells by sonication, 4×10 seconds at 35% amplitude • 4. Add 2.5 mL MgCl2 (100 mM) and DNase 12.5 μL (0.8 mg/mL) and incubate on ice for 30 min • 5. Spin down the bacteria debris and save the supernatant, 7000 rpm for 15 min • 6. Isolate the protein containing membranes in the supernatant by ultracentrifugation 45000×g for 1 hour. • 7. Discard the supernatant and dissolve the pellet in 20 mM KPi buffer and aliquot the enzyme and store aliquots at −80° C.
Before each experiment is performed an aliquot of the enzyme is thawed and it can then be dissolved in 0.1 M KPi pH 7.4 buffer containing 2.5 mM GSH. 50 μL of this enzyme solution is subsequently dispensed in a 384-well plate at room temperature. 0.5 μL of the inhibitor dissolved in DMSO is thereafter added to each well and incubated for 25 minutes at room temperature. Subsequently, 2 μL of PGH2 dissolved in an appropriate solvent is added to each well and after one minute at room temperature, the acidified stop solution containing FeCl2 is added. 4 μL of the total volume is transferred to a separate plate and diluted 750-fold in two separate steps before quantification of PGE2.
In order to quantitate the amount of PGE2 that has been formed, a homogenous time resolved fluorescent (HTRF) detection of PGE2 can be performed by the use of a commercially available kit from CisBio essentially according to the manufacturer's protocol. […]

SMILES	IC50 [nM]
COc1ccc(NC(=O)c2cc(CNC(=O)c3c(F)cccc3Cl)ccc2Cl)cc1C(=O)Nc1ccc(Br)cc1 [Example 25]	1
COc1ccc(NC(=O)c2cc(CNC(=O)C(C)C(F)(F)F)ccc2Cl)cc1C(=O)Nc1ccc(Br)cc1 (stereo not shown) [Example 32]	2
CC(C)(C)C(=O)NCc1ccc(Cl)c(C(=O)Nc2ccc(F)c(C(=O)Nc3ccc(Br)cc3)c2)c1 [Example 2, N-[4-Fluoro-3-(4-bromophenyl)aminocarbonyl-phenyl]-2-chloro-5-(tert-butylcarbonylamino)methyl-benzamide]	4
CC(C)(C)C(=O)NCc1ccc(Cl)c(C(=O)Nc2cc(F)c(F)c(C(=O)Nc3ccc(Br)cc3)c2)c1 [Example 54, N-[3,4-Difluoro-5-(4-bromophenyl)aminocarbonyl-phenyl]-2-chloro-5-(tert-butylcarbonylamino)methyl-benzamide]	9
CC(C)(C)C(=O)NCc1ccc(Cl)c(C(=O)Nc2ccc(OCC(F)F)c(C(=O)NCC3CC3)c2)c1 [Example 13]	13
COc1ccc(NC(=O)c2cc(CNC(=O)C(C)(C)C)ccc2Cl)cc1C(=O)N[C@H]1CC[C@@H](C(F)(F)F)CC1 [Example 19]	4
COc1ccc(NC(=O)c2cc(CNC(=O)c3cccnc3Cl)ccc2Cl)cc1C(=O)Nc1ccc(Br)cc1 [Example 24]	2
CN(C)c1ccc(NC(=O)c2cc(CNC(=O)C(C)(C)C)ccc2Cl)cc1C(=O)N[C@H]1CC[C@H](C(F)(F)F)CC1 [Example 62, N-[4-(dimethylamino)-3-(trans-4-trifluoromethylcyclohexyl)aminocarbonyl-phenyl]-2-chloro-5-(tert-butylcarbonylamino)methyl-benzamide]	11
COc1ccc(NC(=O)c2cc(CNC(=O)C(C)(C)C)ccc2Cl)cc1C(=O)Nc1ccc(Br)cc1 [Example 4, N-[4-Methoxy-3-(4-bromophenyl)aminocarbonyl-phenyl]-2-chloro-5-(tert-butylcarbonylamino)methyl-benzamide]	1
COc1ccc(NC(=O)c2cc(CNC(=O)C(C)(C)C(F)(F)F)ccc2Cl)cc1C(=O)Nc1ccc(Br)cc1 [Example 9, N-[4-Methoxy-3-(4-bromophenyl)aminocarbonyl-phenyl]-2-chloro-5-(2,2,2-trifluoro-1,1-dimethyl-ethyl)carbonylaminomethyl-benzamide]	2
CC(C)(C)C(=O)NCc1ccc(Cl)c(C(=O)Nc2ccc(F)c(C(=O)Nc3ccc(Br)cc3)c2F)c1 [Example 39]	18
CC(C)(C)C(=O)NCc1ccc(Cl)c(C(=O)Nc2ccc(OCC(F)F)c(C(=O)NCC3CC3(C)C)c2)c1 (stereo not shown) [Example 14]	4
CC(C)(C)C(=O)NCc1ccc(Cl)c(C(=O)Nc2cnc(OCC(F)F)c(C(=O)Nc3ccc(Br)cc3)c2)c1 [Example 6, N-[2-(2,2-Difluoroethyl)oxy-3-(4-bromophenyl)aminocarbonyl-pyridin-5-yl]-2-chloro-5-(tert-butylcarbonylamino)methyl-benzamide]	2
CC(C)(C)C(=O)NCc1ccc(Cl)c(C(=O)Nc2ccc(Cl)c(C(=O)Nc3ccc(Br)cc3)c2)c1 [Example 3, N-[4-Chloro-3-(4-bromophenyl)aminocarbonyl-phenyl]-2-chloro-5-(tert-butylcarbonylamino)methyl-benzamide]	22
CC1CCN(c2ccc(NC(=O)c3cc(CNC(=O)C(C)(C)C)ccc3Cl)cc2C(=O)Nc2ccc(Br)cc2)CC1 [Example 37, N-[4-(4-Methyl-piperidin-1-yl)-3-(4-bromophenyl)aminocarbonyl-phenyl]-2-chloro-5-(tert-butylcarbonylamino)methyl-benzamide]	1
COc1ccc(NC(=O)c2cc(CNC(=O)C3(C)CCCCC3)ccc2Cl)cc1C(=O)Nc1ccc(Br)cc1 [Example 27]	2

SMILES	IC50 [nM]
CC(C)(C)C(=O)NCc1ccc(Cl)c(C(=O)Nc2ccc(OCC(F)F)c(C(=O)Nc3ccc(Br)cc3)c2)c1 [Example 15]	2
CC(C)(C)C(=O)NCc1ccc(Cl)c(C(=O)Nc2ccc(OCC(F)F)c(C(=O)NCC#Cc3ccccc3)c2)c1 [Example 40]	5
COc1ccc(NC(=O)c2cc(CNS(=O)(=O)C3CC3)ccc2Cl)cc1C(=O)Nc1ccc(Br)cc1 [Example 36, N-[4-Methoxy-3-(4-bromophenyl)aminocarbonyl-phenyl]-2-chloro-5-cyclopropylsulphonylaminomethyl-benzamide]	6
O=C(NCc1ccc(Cl)c(C(=O)Nc2ccc(Cl)c(C(=O)NC3CC3)c2)c1)c1ccc(Cl)s1 [Example 10, N-[4-Chloro-3-cyclopropylaminocarbonyl-phenyl]-2-chloro-5-(5-chloro-thien-2-yl)carbonylaminomethyl-benzamide]	~900
COc1ccc(NC(=O)c2cc(CNC(=O)C(C)(N)C(F)(F)F)ccc2Cl)cc1C(=O)Nc1ccc(Br)cc1 (stereo not shown) [Example 33]	2
COc1ccc(NC(=O)c2cc(CNC(=O)c3c(F)cccc3C(F)(F)F)ccc2Cl)cc1C(=O)Nc1ccc(Br)cc1 [Example 26]	3
CC(C)(C)C(=O)NCc1ccc(Cl)c(C(=O)Nc2ccc(OCC(F)F)c(C(=O)Nc3ccc(F)c(Cl)c3)c2)c1 [Example 7, N-[4-(2,2-Difluoroethyl)oxy-3-(4-fluoro-3-chloro-phenyl)aminocarbonyl-phenyl]-2-chloro-5-(tert-butylcarbonylamino)methyl-benzamide]	4
CNC(=O)c1cc(NC(=O)c2cc(CNC(=O)C3(C)CCCCC3)ccc2C)ccc1Cl [Example 1, N-(4-Chloro-3-methylaminocarbonyl-phenyl)-2-methyl-5-[(1-methylcyclohexylcarbonylamino)methyl]-benzamide]	~1600
CC(C)(C)C(=O)NCc1ccc(Cl)c(C(=O)Nc2ccc(OCC(F)(F)F)c(C(=O)N[C@H]3CC[C@H](C(F)(F)F)CC3)c2)c1 [Example 11]	4
CC(C)(C)C(=O)NCc1ccc(Cl)c(C(=O)Nc2ccc(OCC3CC3)c(C(=O)N[C@H]3CC[C@H](C(F)(F)F)CC3)c2)c1 [Example 38, N-[4-(Cyclopropylmethyloxy)-3-[trans-(4-trifluoromethyl-cyclohexyl)amino]carbonyl-phenyl]-2-chloro-5-(tert-butylcarbonylamino)methyl-benzamide]	4
COc1ccc(NC(=O)c2cc(CNC(=O)C(C)(C)C)ccc2Cl)cc1C(=O)NC1CCCCC1 [Example 17]	16
CC(C)(C(=O)NCc1ccc(Cl)c(C(=O)Nc2cnc(OCC(F)F)c(C(=O)Nc3ccc(Br)cc3)c2)c1)C(F)(F)F [Example 73, N-[2-(2,2-Difluoroethyl)oxy-3-(4-bromophenyl)aminocarbonyl-pyridin-5-yl]-2-chloro-5-[(2,2,2-trifluoro-1,1-dimethyl-ethyl)carbonylamino]methyl-benzamide]	7
COc1ccc(NC(=O)c2cc(CNC(=O)C3(C(F)(F)F)CCCC3)ccc2Cl)cc1C(=O)Nc1ccc(Br)cc1 [Example 22]	2
CC(C)(C)C(=O)NCc1ccc(Cl)c(C(=O)Nc2ccc(OCC(F)(F)F)c(C(=O)NCC3CC3)c2)c1 [Example 41]	3
Cc1ccc(NC(=O)c2cc(CNC(=O)C(C)(C)C)ccc2Cl)cc1C(=O)Nc1ccc(Br)cc1 [Example 55, N-[4-Methyl-3-(4-bromophenyl)aminocarbonyl-phenyl]-2-chloro-5-(tert-butylcarbonylamino)methyl-benzamide]	59
